Assay results from PubChem BioAssay (NCI).
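Each compound was tested at five concentrations against cells in 96-well plates for 48 hours. At the GI50, growth is halved. TGI: concentration producing complete growth inhibition.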

Key:
Experiment in all cases: NCI anticancer screen, dose series, 48 h
[1] = tested on: 786-0 renal
[2] = tested on: A498 renal
[3] = tested on: A549 NSCLC
[4] = tested on: ACHN renal
[5] = tested on: BT-549 breast
[6] = tested on: CAKI-1 renal
[7] = tested on: CCRF-CEM leukemia
[8] = tested on: COLO 205 colon
[9] = tested on: DU-145 prostate
[10] = tested on: EKVX NSCLC
[11] = tested on: HCC-2998 colon
[12] = tested on: HCT-116 colon
[13] = tested on: HCT-15 colon
[14] = tested on: HL-60(TB) leukemia
[15] = tested on: HOP-62 NSCLC
[16] = tested on: HOP-92 NSCLC
[17] = tested on: HS 578T breast
[18] = tested on: HT29 colon
[19] = tested on: IGROV1 ovarian
[20] = tested on: K-562 leukemia
[21] = tested on: KM12 colon
[22] = tested on: LOX IMVI melanoma
[23] = tested on: MALME-3M melanoma
[24] = tested on: MCF7 breast
[25] = tested on: MDA-MB-231 breast
[26] = tested on: MDA-MB-435
[27] = tested on: MOLT-4 leukemia
[28] = tested on: NCI-H226 lung
[29] = tested on: NCI-H23 lung
[30] = tested on: NCI-H460 lung
[31] = tested on: NCI-H522 lung
[32] = tested on: NCI/ADR-RES ovarian
[33] = tested on: OVCAR-3 ovarian
[34] = tested on: OVCAR-4 ovarian
[35] = tested on: OVCAR-5 ovarian
[36] = tested on: OVCAR-8 ovarian
[37] = tested on: PC-3 prostate
[38] = tested on: RPMI-8226 leukemia
[39] = tested on: RXF 393 renal
[40] = tested on: SF-268 CNS
[41] = tested on: SF-295 CNS
[42] = tested on: SF-539 CNS
[43] = tested on: SK-MEL-2 melanoma
[44] = tested on: SK-MEL-28 melanoma
[45] = tested on: SK-MEL-5 melanoma
[46] = tested on: SK-OV-3 ovarian
[47] = tested on: SN12C renal
[48] = tested on: SNB-19 CNS
[49] = tested on: SNB-75 CNS
[50] = tested on: SR leukemia
[51] = tested on: SW-620 colon
[52] = tested on: T-47D breast
[53] = tested on: TK-10 renal
[54] = tested on: U251 CNS
[55] = tested on: UACC-257 melanoma
[56] = tested on: UACC-62 melanoma
[57] = tested on: UO-31 renal

Question: What does the source list for `CCOC(=O)c1c(NC(=O)c2ccc(C(F)(F)F)cc2)sc2c(CN3CCN(C)CC3)c(O)ccc12`?
Answer: GI50 [1]: 1550 nM; TGI [1]: 3320 nM; GI50 [2]: 1630 nM; TGI [2]: 3300 nM; GI50 [3]: 1850 nM; TGI [3]: 3850 nM; GI50 [4]: 1810 nM; TGI [4]: 3210 nM; GI50 [5]: 1850 nM; TGI [5]: 4150 nM; GI50 [6]: 1650 nM; TGI [6]: 3160 nM; GI50 [7]: 1950 nM; TGI [7]: 4770 nM; GI50 [8]: 1870 nM; TGI [8]: 3760 nM; GI50 [9]: 1970 nM; TGI [9]: 3790 nM; GI50 [10]: 2620 nM; TGI [10]: 8150 nM; GI50 [11]: 1710 nM; TGI [11]: 3230 nM; GI50 [12]: 1680 nM; TGI [12]: 3340 nM; GI50 [13]: 1740 nM; TGI [13]: 3500 nM; GI50 [14]: 1780 nM; TGI [14]: 3940 nM; GI50 [15]: 1820 nM; TGI [15]: 3990 nM; GI50 [16]: 1360 nM; TGI [16]: 3110 nM; GI50 [17]: 1990 nM; TGI [17]: 4520 nM; GI50 [18]: 1830 nM; TGI [18]: 3680 nM; GI50 [19]: 1790 nM; TGI [19]: 3470 nM; GI50 [20]: 1130 nM; TGI [20]: 5860 nM; GI50 [21]: 1790 nM; TGI [21]: 3340 nM; GI50 [22]: 1780 nM; TGI [22]: 3190 nM; GI50 [23]: 1990 nM; TGI [23]: 4280 nM; GI50 [24]: 1820 nM; TGI [24]: 3650 nM; GI50 [25]: 1860 nM; TGI [25]: 3560 nM; GI50 [26]: 1730 nM; TGI [26]: 3120 nM; GI50 [27]: 1740 nM; TGI [27]: 4000 nM; GI50 [28]: 1950 nM; TGI [28]: 4070 nM; GI50 [29]: 2110 nM; TGI [29]: 4730 nM; GI50 [30]: 1770 nM; TGI [30]: 3380 nM; GI50 [31]: 2190 nM; TGI [31]: 5560 nM; GI50 [32]: 1920 nM; TGI [32]: 3830 nM; GI50 [33]: 1750 nM; TGI [33]: 3170 nM; GI50 [34]: 2050 nM; TGI [34]: 4430 nM; GI50 [35]: 1770 nM; TGI [35]: 3190 nM; GI50 [36]: 2140 nM; TGI [36]: 4770 nM; GI50 [37]: 1690 nM; TGI [37]: 3220 nM; GI50 [38]: 1730 nM; TGI [38]: 3950 nM; GI50 [39]: 1590 nM; TGI [39]: 3810 nM; GI50 [40]: 1870 nM; TGI [40]: 4010 nM; GI50 [41]: 1940 nM; TGI [41]: 3980 nM; GI50 [42]: 1630 nM; TGI [42]: 3020 nM; GI50 [43]: 2210 nM; TGI [43]: 5000 nM; GI50 [44]: 1730 nM; TGI [44]: 3160 nM; GI50 [45]: 3030 nM; TGI [45]: 10100 nM; GI50 [46]: 1930 nM; TGI [46]: 4210 nM; GI50 [47]: 1760 nM; TGI [47]: 3440 nM; GI50 [48]: 1790 nM; TGI [48]: 3480 nM; GI50 [49]: 2050 nM; TGI [49]: 4920 nM; GI50 [50]: 1110 nM; TGI [50]: 3420 nM; GI50 [51]: 1710 nM; TGI [51]: 3200 nM; GI50 [52]: 1840 nM; TGI [52]: 4540 nM; GI50 [53]: 1620 nM; TGI [53]: 3160 nM; GI50 [54]: 1790 nM; TGI [54]: 3370 nM; GI50 [55]: 2120 nM; TGI [55]: 4980 nM; GI50 [56]: 1790 nM; TGI [56]: 3590 nM; GI50 [57]: 1510 nM; TGI [57]: 2950 nM
